According to patent US20220213052A1, “INHIBITORS OF RNA-BINDING PROTEINS, COMPOSITIONS THEREOF, AND THERAPEUTIC USES THEROF” (The University of North Carolina at Chapel Hill, priority 2019, published 2022):
Counter-ions that a name gives are not always drawn. Like-named read-outs stand apart in the source and are kept apart here.

How the values were obtained:
[1] = molecular target: T1, full-length human HuR protein (Homo sapiens, UniProt Q15717); assay: FP assay of HuR-Msi1 ARE binding inhibition; conditions: HuR-Msi1 ARE interaction; read-out: HuR Ki via FP assay
T1 construct: full-length human HuR protein was produced by the KU COBRE-PSF Protein Purification Group; made in house
T1 sequence (Q15717 whole entry): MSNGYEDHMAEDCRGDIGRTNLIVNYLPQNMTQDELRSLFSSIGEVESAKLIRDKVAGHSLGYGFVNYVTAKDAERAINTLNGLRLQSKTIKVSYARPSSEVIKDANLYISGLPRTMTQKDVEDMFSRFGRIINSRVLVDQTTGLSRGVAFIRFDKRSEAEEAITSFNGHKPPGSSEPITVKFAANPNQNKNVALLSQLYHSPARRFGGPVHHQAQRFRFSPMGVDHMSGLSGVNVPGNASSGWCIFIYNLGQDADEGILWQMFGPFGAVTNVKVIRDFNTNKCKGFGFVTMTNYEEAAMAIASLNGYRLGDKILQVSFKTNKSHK
Source text: A fluorescence polarization (FP)-based binding assay was utilized to assess the inhibition of HuR protein interaction with the ARE site of Msi1 mRNA (“HuR-Msi1^ARE”) by compounds of interest. Briefly, full-length human HuR protein was produced by the KU COBRE-PSF Protein Purification Group and Bcl2, Msi1 and XIAP mRNA sequences (16 nt) were designed based on literature precedent^23,24,31,32. Fluorescein labeled RNAs were purchased from Dharmacon with the following sequences: Msi1 RNA: 5′-[…]-3′-fluorescein; Bcl-2 RNA: 5′-[…]-3′-fluorescein; XIAP RNA: 5′-[…] UGUC-3′-fluorescein, and a 16-nt degenerative RNA with 3′-fluorescein label was used as a negative control.
(§1) With the FP assay of HuR-Msi1ARE binding, the inhibition of the HuR-Msi1ARE interaction by various compounds of the present technology was assessed. Similar FP assays for Musashi 2 (Msi2) and for RNA-binding protein Lin-28 homolog B (LIN28B) were also performed on various compounds of the present technology. The results of such assays for HuR are provided in Table 1 alongside the compound structures as well as ID numbers for ease of reference; the results of such assays for Msi1, Msi2, and LIN28B are provided in Table 2.

[2] = test system: triple-negative breast cancer cell line MDA-MB-231; assay: Cytotoxicity assay (WST-8), MDA-MB-231; assay type: cell-based; conditions: Homo sapiens, 96 h incubation
Description: The cytotoxicity of various compounds of the present technology in several cancer cell lines (pancreatic cancer cell line MIAPaCa-2, triple-negative breast cancer cell line MDA-MB-231, and colon cancer cell lines HCT116, HCT116 β/W, and RKO) was assessed by a cytotoxicity assay. Cells were seeded in 96-well culture plates (3,000-5,000 cells/well) and treated with titrated compounds in triplicate. After 96 h incubation, cell growth medium was removed and proliferation reagent WST-8 (Sigma) was added to each well and incubated at 37° C. for 1-3 h. Absorbance was then measured with a plate reader at 450 nm with correction at 650 nm. The results were expressed as the percentage of absorbance of treated wells versus that of vehicle control. IC50, the drug concentration causing 50% growth inhibition, was calculated via sigmoid curve fitting using GraphPad Prism 5.0. The results for those compounds tested against MIAPaCa-2 and MDA-MB-231 are provided in Table 1; the results for those compounds tested against colon cancer cell lines HCT116, HCT116 β/W, and RKO are provided in Table 3.

Musashi 2 (Msi2) = Musashi 2 (Msi2) (Homo sapiens, UniProt Q96DH6); assay: Msi2 FP assay; assay type: binding
Sequence of Musashi 2 (Msi2) (Q96DH6 whole entry, species assumed): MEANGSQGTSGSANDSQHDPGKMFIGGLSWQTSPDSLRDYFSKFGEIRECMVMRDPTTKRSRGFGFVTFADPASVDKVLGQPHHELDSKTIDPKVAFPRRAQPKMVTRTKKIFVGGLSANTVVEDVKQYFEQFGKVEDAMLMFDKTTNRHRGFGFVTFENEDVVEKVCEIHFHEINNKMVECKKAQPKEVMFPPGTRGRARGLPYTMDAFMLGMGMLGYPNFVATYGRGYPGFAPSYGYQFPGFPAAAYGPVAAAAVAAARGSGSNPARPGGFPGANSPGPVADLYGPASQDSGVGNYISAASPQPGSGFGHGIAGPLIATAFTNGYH
Description: as §1

[3] = molecular target: T2, RNA-binding protein Lin-28 homolog B (LIN28B) (Homo sapiens, UniProt Q6ZN17); assay: LIN28B FP assay
T2 sequence (Q6ZN17 1-250): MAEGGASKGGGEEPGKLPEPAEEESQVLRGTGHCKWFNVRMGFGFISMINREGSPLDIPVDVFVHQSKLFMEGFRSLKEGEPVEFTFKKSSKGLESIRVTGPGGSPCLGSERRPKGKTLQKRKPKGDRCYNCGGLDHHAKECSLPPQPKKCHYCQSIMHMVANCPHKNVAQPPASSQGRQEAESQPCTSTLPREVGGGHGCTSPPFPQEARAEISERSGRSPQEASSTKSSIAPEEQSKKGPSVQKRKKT
Description: as §1

[4] = cell marked (RRM1), read-out: Msi2 (Ki) (RRM1)
[5] = cell without (RRM1) mark, read-out: Msi2 (Ki)

Compound	Ki [1] [µM]	Ki (Musashi 2 (Msi2); [4]) [µM]	Ki [3] [µM]	Ki (Musashi 2 (Msi2); [5]) [µM]	IC50 [2] [µM]
CC(C)(C)c1ccc(C(=O)Nc2ccc3[nH]c(/C=C/C(=O)O)cc3c2)cc1 [KH-48A, (E)-3-(5-(4-(tert-butyl)benzamido)-1H-indol-2-yl)acrylic acid]	3.35	4.8	> 20		> 100
CC(C)(C)c1ccc(C(=O)Nc2ccc3[nH]c(C(=O)NN)cc3c2)cc1 [KH-39E, 4-(tert-butyl)-N-(2-(hydrazinecarbonyl)-1H-indol-5-yl)benzamide]	1.67		> 20		13.5
CN(C)c1ccc(C(=O)Nc2ccc3[nH]c(/C=C/C(=O)O)cc3c2)cc1 [KH-52A, (E)-3-(5-(4-(dimethylamino)benzamido)-1H-indol-2-yl)acrylic acid]	7.76	27.1	> 20		> 100
O=C(Nc1ccc2[nH]c(C(=O)O)cc2c1)c1ccccn1 [KH-56A, 5-(picolinamido)-1H-indole-2-carboxylic acid hydrochloride]	> 20		> 20	> 20	> 100
CN(C)c1ccc(C(=O)Nc2ccc3sc(C(=O)O)cc3c2)cc1 [KH-58A, 5-(4-(Dimethylamino)benzamido)benzo[b]thiophene-2-carboxylic acid]	2.37	6.6	> 20		> 100
CC(C)(C)c1ccc(C(=O)Nc2ccc3sc(C(=O)O)cc3c2)cc1 [KH-43A, 5-(4-(tert-butyl)benzamido)benzo[b]thiophene-2-carboxylic acid]	5.08	5.25	> 20		90.5
O=C(O)/C=C/c1cc2cc(NC(=O)c3ccccn3)ccc2s1 [KH-47A, (E)-3-(5-(picolinamido)benzo[b]thiophen-2-yl)acrylic acid hydrochloride]	1.81	6.8	> 20		18.2
CN(C)c1ccc(C(=O)Nc2ccc3[nH]c(C(=O)O)cc3c2)cc1 [KH-57A, 5-(4-(dimethylamino)benzamido)-1H-indole-2-carboxylic acid]	0.78	2.1	> 20		100

Further lines, with some results ahead:

Ki [1] [µM]	Ki (Musashi 2 (Msi2); [4]) [µM]	Ki [3] [µM]	Ki (Musashi 2 (Msi2); [5]) [µM]	Compound	IC50 [2] [µM]
0.34	3.91	8.79		CC(C)(C)c1ccc(C(=O)Nc2ccc3[nH]c(/C=C/C(=O)NO)cc3c2)cc1 [KH-48, (E)-4-(tert-butyl)-N-(2-(3-(hydroxyamino)-3-oxoprop-1-en-1-yl)-1H-indol-5-yl)benzamide]	2.24
3.23		> 20	> 20	O=C(Nc1ccc2sc(C(=O)NO)cc2c1)c1ccccn1 [KH-60, N-(2-(hydroxycarbamoyl)benzo[b]thiophen-5-yl)picolinamide]	4.43
0.69		> 20	> 20	CN(C)c1ccc(C(=O)Nc2ccc3[nH]c(/C=C/C(=O)NO)cc3c2)cc1 [KH-52, (E)-4-(dimethylamino)-N-(2-(3-(hydroxyamino)-3-oxoprop-1-en-1-yl)-1H-indol-5-yl)benzamide]	8.91
0.44	2.9	2.7		CC(C)(C)c1ccc(C(=O)Nc2ccc3sc(C(=O)NO)cc3c2)cc1 [KH-43, 5-(4-(tert-butyl)benzamido)-N-hydroxybenzo[b]thiophene-2-carboxamide]	3.71
3.31		> 20	> 20	CN(C)c1ccc(C(=O)Nc2ccc3[nH]c(C(=O)NO)cc3c2)cc1 [KH-57, 5-(4-(dimethylamino)benzamido)-N-hydroxy-1H-indole-2-carboxamide]	11.3
4.44		> 20	> 20	O=C(/C=C/c1cc2cc(NC(=O)c3ccccn3)ccc2s1)NO [KH-47, (E)-N-(2-(3-(hydroxyamino)-3-oxoprop-1-en-1-yl)benzo[b]thiophen-5-yl) picolinamide hydrochloride]	3.11
